Reference: ChEMBL document CHEMBL3046587, “Baseline sensitivity of Monilinia laxa from Greece to fenhexamid and analysis of fenhexamid-resistant mutants” (Crop Prot, 2013)
Values after ≈ are worked out from the molar mass of the structure shown.

Tests used:
Type in all cases: functional, organism-based
[1] = test system: Monilinia laxa; test: Fungitoxicity against moderately fenhexamid resistant Monilinia laxa MF-1 assessed as reduction in mycelial growth measured at 25 degC after 4 days; conditions: MF-1, 96 h
[2] = test system: Monilinia laxa; test: Fungitoxicity against moderately fenhexamid resistant Monilinia laxa MF-8 assessed as reduction in mycelial growth measured at 25 degC after 4 days; conditions: MF-8, 96 h
[3] = test system: Monilinia laxa; test: Fungitoxicity against moderately fenhexamid resistant Monilinia laxa MF-7 assessed as reduction in mycelial growth measured at 25 degC after 4 days; conditions: MF-7, 96 h
[4] = test system: Monilinia laxa; test: Fungitoxicity against highly fenhexamid resistant Monilinia laxa MF-3 assessed as reduction in mycelial growth measured at 25 degC after 4 days; conditions: MF-3, 96 h
[5] = test system: Monilinia laxa; test: Fungitoxicity against moderately fenhexamid resistant Monilinia laxa MF-6 assessed as reduction in mycelial growth measured at 25 degC after 4 days; conditions: MF-6, 96 h
[6] = test system: Monilinia laxa; test: Fungitoxicity against wild type Monilinia laxa K2 assessed as reduction in mycelial growth measured at 25 degC after 4 days; conditions: K2, 96 h
[7] = test system: Monilinia laxa; test: Fungitoxicity against moderately fenhexamid resistant Monilinia laxa MF-22 assessed as reduction in mycelial growth measured at 25 degC after 4 days; conditions: MF-22, 96 h
[8] = test system: Monilinia laxa; test: Fungitoxicity against highly fenhexamid resistant Monilinia laxa MF-2 assessed as reduction in mycelial growth measured at 25 degC after 4 days; conditions: MF-2, 96 h
[9] = test system: Monilinia laxa; test: Fungitoxicity against moderately fenhexamid resistant Monilinia laxa MF-4 assessed as reduction in mycelial growth measured at 25 degC after 4 days; conditions: MF-4, 96 h
[10] = test system: Monilinia laxa; test: Fungitoxicity against highly fenhexamid resistant Monilinia laxa MF-5 assessed as reduction in mycelial growth measured at 25 degC after 4 days; conditions: MF-5, 96 h

CC(C)NC(=O)N1CC(=O)N(c2cc(Cl)cc(Cl)c2)C1=O [IPRODIONE]
EC50 [1]: 0.26 µg/mL (≈ 0.787 µM) | EC50 [2]: 0.35 µg/mL (≈ 1.06 µM) | EC50 [3]: 0.23 µg/mL (≈ 0.697 µM) | EC50 [4]: 0.25 µg/mL (≈ 0.757 µM) | EC50 [5]: 0.32 µg/mL (≈ 0.969 µM) | EC50 [6]: 0.25 µg/mL (≈ 0.757 µM) | EC50 [7]: 0.21 µg/mL (≈ 0.636 µM) | EC50 [8]: 0.24 µg/mL (≈ 0.727 µM) | EC50 [9]: 0.19 µg/mL (≈ 0.575 µM) | EC50 [10]: 0.25 µg/mL (≈ 0.757 µM)

CCCN(CCOc1c(Cl)cc(Cl)cc1Cl)C(=O)n1ccnc1 [PROCHLORAZ]
EC50 [1]: 0.01 µg/mL (≈ 0.0265 µM) | EC50 [2]: 0.02 µg/mL (≈ 0.0531 µM) | EC50 [3]: 0.08 µg/mL (≈ 0.212 µM) | EC50 [4]: 0.02 µg/mL (≈ 0.0531 µM) | EC50 [5]: 0.03 µg/mL (≈ 0.0796 µM) | EC50 [6]: 0.01 µg/mL (≈ 0.0265 µM) | EC50 [7]: 0.02 µg/mL (≈ 0.0531 µM) | EC50 [8]: 0.07 µg/mL (≈ 0.186 µM) | EC50 [9]: 0.04 µg/mL (≈ 0.106 µM) | EC50 [10]: 0.01 µg/mL (≈ 0.0265 µM)

COC(=O)N(OC)c1ccccc1COc1ccn(-c2ccc(Cl)cc2)n1 [PYRACLOSTROBIN]
EC50 [1]: 0.2 µg/mL (≈ 0.516 µM) | EC50 [2]: 0.4 µg/mL (≈ 1.03 µM) | EC50 [3]: 0.4 µg/mL (≈ 1.03 µM) | EC50 [4]: 0.4 µg/mL (≈ 1.03 µM) | EC50 [5]: 0.1 µg/mL (≈ 0.258 µM) | EC50 [6]: 0.3 µg/mL (≈ 0.774 µM) | EC50 [7]: 0.2 µg/mL (≈ 0.516 µM) | EC50 [8]: 0.5 µg/mL (≈ 1.29 µM) | EC50 [9]: 0.3 µg/mL (≈ 0.774 µM) | EC50 [10]: 0.4 µg/mL (≈ 1.03 µM)

CCCN(CC)CC1COC2(CCC(C(C)(C)C)CC2)O1 (stereo not given) [SPIROXAMINE]
EC50 [1]: 3.8 µg/mL (≈ 12.8 µM) | EC50 [2]: 3.2 µg/mL (≈ 10.8 µM) | EC50 [3]: 3.5 µg/mL (≈ 11.8 µM) | EC50 [4]: 3.6 µg/mL (≈ 12.1 µM) | EC50 [5]: 12 µg/mL (≈ 40.3 µM) | EC50 [6]: 3.5 µg/mL (≈ 11.8 µM) | EC50 [7]: 3.3 µg/mL (≈ 11.1 µM) | EC50 [8]: 3.7 µg/mL (≈ 12.4 µM) | EC50 [9]: 2.9 µg/mL (≈ 9.75 µM) | EC50 [10]: 3.5 µg/mL (≈ 11.8 µM)

CCCCCCCCCCCCCN1CC(C)OC(C)C1 (stereo not given) [TRIDEMORPH]
EC50 [1]: 0.4 µg/mL (≈ 1.34 µM) | EC50 [2]: 0.4 µg/mL (≈ 1.34 µM) | EC50 [3]: 0.09 µg/mL (≈ 0.302 µM) | EC50 [4]: 0.11 µg/mL (≈ 0.37 µM) | EC50 [5]: 0.6 µg/mL (≈ 2.02 µM) | EC50 [6]: 0.1 µg/mL (≈ 0.336 µM) | EC50 [7]: 0.1 µg/mL (≈ 0.336 µM) | EC50 [8]: 0.07 µg/mL (≈ 0.235 µM) | EC50 [9]: 0.12 µg/mL (≈ 0.403 µM) | EC50 [10]: 0.08 µg/mL (≈ 0.269 µM)
